No end group written: not given here.
Key:
[1] = Toxicity assessment, cell survival of endothelial cells; format: cell-based; conditions: bovine, endothelial cells (BAEC), increasing concentrations up to 1,000 ng/ml, 48 hours of exposure
Description: (§1) The chimeric peptides of the invention and the peptides from which they are derived were found safe, non-toxic, to normal cells such endothelial cells (BAEC; FIG. 9a) and fibroblasts (FF; FIG. 9B). Cells incubated with increasing concentrations (up to 1,000 ng/ml) of the chimeric peptide (black square), the haptide alone (white/empty circle) or the M-tide alone (white/empty square), maintained 100% survival. Cell survival was measured following 48 hours of exposure to the peptides.

[2] = Toxicity assessment, cell survival of fibroblasts; format: cell-based; conditions: human, fibroblasts (FF), increasing concentrations up to 1,000 ng/ml, 48 hours of exposure
Description: as §1

Row | Sequence | viability at 48 h [1] [%] | viability at 48 h [2] [%]
1 | KTRWYSMKKTTMK [haptide, KTRWYSMKKTTMK, reference compound] | 100 | 100
2 | KTRWYSMKKTTMKVFQKRLDGSVDFKK [chimeric peptide] | 100 | 100
3 | VFQKRLDGSVDFKK [M-tide, VFQKR LDGSV DFKK] | 100 | 100
